Test results from patent US20020072535A1 (priority 1997, published 2002).

What was measured:
Format in all cases: in vivo
Phytophthora infestans = assay: whole plant or invertebrate; details: in Solanum lycopersicum, 72 h, read-out: Efficiacy in %
Fusarium nivale = Fusarium nivale test (triticale)/seed treatment; details: triticale seed dressing, about 3 weeks after sowing
Experimental: Fusarium nivale test (triticale)/seed treatment
(§1) The active compounds are applied as dry seed dressings. These are prepared by extending the respective active compound or the active compound combination with ground minerals to give a finely pulverulent mixture which ensures uniform distribution on the seed surface.
(§2) To dress the seed, the infected seed together with the seed dressing is shaken for 3 minutes in a sealed glass flask.
2×100 corns of triticale are sown at a depth of 1 cm in standard soil and cultivated in a greenhouse at a temperature of about 10° C. and a relative atmospheric humidity of about 95% in seed trays which receive a light regimen of 15 hours per day.
About 3 weeks after sowing, the plants are evaluated for symptoms. 0% means an efficacy which corresponds to that of the control, while an efficacy of 100% means that no infection is observed.

Pythium sp. = Pythium sp. test (pea)/seed treatment; details: pea seed dressing, evaluation after 14 days
Experimental: Pythium sp. test (pea)/seed treatment
as §1, §2
2×50 corns of seed are sown at a depth of 2 cm in compost soil naturally infected with phythium sp. and cultivated in a greenhouse at a temperature of about 20° C. in seed trays which receive a light regimen of 15 hours per day.
Evaluation is carried out after 14 days. 0% means an efficacy which corresponds to that of the control, while an efficacy of 100% means that no infection is observed.

O=C1c2ccccc2C(=O)N1SC(Cl)(Cl)Cl
pest or weed control at 2 g/ha (Phytophthora infestans): 12%

Cc1cc(C)nc(Nc2ccccc2)n1
pest or weed control at 1 g/ha (Phytophthora infestans): 0%

Cc1cc(C2CC2)nc(Nc2ccccc2)n1
pest or weed control at 1 g/ha (Phytophthora infestans): 0%

CO/C=C(/C(=O)OC)c1ccccc1Oc1cc(Oc2ccccc2C#N)ncn1
pest or weed control at 0.2 g/ha (Phytophthora infestans): 51%

CO/C=C(/C(=O)OC)c1ccccc1COc1ccccc1C
pest or weed control at 0.2 g/ha (Phytophthora infestans): 0%

CO/N=C(\C1=NOCCO1)c1ccccc1Oc1ncnc(Oc2ccccc2Cl)c1F
pest or weed control at 1 g/ha (Phytophthora infestans): 27%

COc1ccc(C(=CC(=O)N2CCOCC2)c2ccc(Cl)cc2)cc1OC
pest or weed control at 0.2 g/ha (Phytophthora infestans): 0%

CCNC(=O)NC(=O)C(C#N)=NOC
pest or weed control at 0.2 g/ha (Phytophthora infestans): 0%

COCC(=O)N(c1c(C)cccc1C)C(C)C(=O)OC (centres unmarked)
pest or weed control at 0.2 g/ha (Phytophthora infestans): 0%

CCC(C)(NC(=O)c1cc(Cl)c(C)c(Cl)c1)C(=O)CCl (centres unmarked)
pest or weed control at 0.2 g/ha (Phytophthora infestans): 0%

Cc1ccc(C(C)NC(=O)C(NC(=O)OC(C)C)C(C)C)cc1 (centres unmarked)
pest or weed control at 0.2 g/ha (Phytophthora infestans): 0% | pest or weed control at 1 g/ha (Phytophthora infestans): 0%

CC(C)(C)C(O)C(Oc1ccc(-c2ccccc2)cc1)n1cncn1 (centres unmarked)
pest or weed control at 0.2 g/ha (Phytophthora infestans): 24%

CC(C)(C)C(O)(CCc1ccc(Cl)cc1)Cn1cncn1 (centres unmarked)
pest or weed control at 0.2 g/ha (Phytophthora infestans): 0%

CC(C)(C)C(=O)C(Oc1ccc(Cl)cc1)n1cncn1 (centres unmarked)
pest or weed control at 0.2 g/ha (Phytophthora infestans): 0%

CC(C)(C)C(O)C(Oc1ccc(Cl)cc1)n1cncn1 (centres unmarked)
pest or weed control at 0.2 g/ha (Phytophthora infestans): 0%

OC(Cc1ccccc1Cl)(Cn1nc[nH]c1=S)C1(Cl)CC1 (centres unmarked)
pest or weed control at 0.2 g/ha (Phytophthora infestans): 0%

CC1(C(=O)Nc2ccc(O)c(Cl)c2Cl)CCCCC1
pest or weed control at 5 g/ha (Phytophthora infestans): 0%

Cc1noc(C)c1S(=O)(=O)n1c(Br)nc2cc3c(cc21)OC(F)(F)O3 [(Ia), 1-(3,5-dimethyl-isoxazole-4-sulphonyl)-2-bromo6,6-difluoro[1,3]-dioxolo-[4,5f]-benzimidazole]
pest or weed control at 0.2 g/ha (Phytophthora infestans): 14% | pest or weed control at 1 g/ha (Phytophthora infestans): 65% | Efficacy in % (Fusarium nivale; 100 mg/kg of seed): 26% | Efficacy in % (Pythium sp.; 500 mg/kg of seed): 1%

Cc1noc(C)c1S(=O)(=O)n1c(Cl)nc2cc3c(cc21)OC(F)(F)O3 [(Ib), 1-(3,5-dimethyl-isoxazole-4-sulphonyl)-2-chloro-6,6-difluoro-[1,3]-dioxolo-[4,5f]-benzimidazole]
pest or weed control at 0.2 g/ha (Phytophthora infestans): 37% | pest or weed control at 1 g/ha (Phytophthora infestans): 76% | Efficacy in % (Fusarium nivale; 100 mg/kg of seed): 0% | Efficacy in % (Fusarium nivale; 500 mg/kg of seed): 0% | Efficacy in % (Pythium sp.; 1000 mg/kg of seed): 4%

O=[N+]([O-])/N=C1\NCCN1Cc1ccc(Cl)nc1 [(XXII), 1-[(6-chloro-3-pyridinyl)-methyl]-N-nitro-2-imidazolidineimine]
Efficacy in % (Fusarium nivale; 100 mg/kg of seed): 0%

O=[N+]([O-])/N=C1\NCCN1Cc1ccc(Cl)nc1 [drawing 67]
pest or weed control at 0.2 g/ha (Phytophthora infestans): 6%
